Holding throughout (assay): NCI tumour cell line growth inhibition, 48 h
The test system of experiment [1] is EKVX NSCLC.
The test system of experiment [2] is SN12C renal.
For experiment [3], the system named is HT29 colon.
Experiment [4] has as its system NCI-H522 lung.
Experiment [5] relates to SK-MEL-28 melanoma.
The test system of experiment [6] is ACHN renal.
The test system of experiment [7] is HL-60(TB) leukemia.
For experiment [8], the system named is K-562 leukemia.
Experiment [9] concerns SR leukemia.
The subject of experiment [10] is OVCAR-5 ovarian.

Values joined by “and” are separate entries in the source; they are usually repeats but may differ in a detail not shown here. Identical values can stand only once.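 1) Cells in 96-well plates. 2) Compound, 48 h, 5 concentrations. 3) Linear interpolation between surrounding doses. 4) Unreached endpoint = highest concentration. GI50: concentration for 50% inhibition of growth. TGI marks complete inhibition of growth.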

In the case of `COC(=O)[C@@H](C)C[C@H](Cc1ccccc1)NC(=O)c1csc([C@@H](C[C@H](C(C)C)N(C)C(=O)[C@@H](NC(=O)[C@H]2CCCCN2C)C(C)C)OC(C)=O)n1`, the GI50 in [1] was 0.000617 µM and 0.00356 µM; in experiment [2] it was 0.000567 µM and 0.0025 µM; in [4] it was 0.000178 µM; in experiment [5], 0.0025 µM; in experiment [6] it was 0.000417 µM and 0.0025 µM; in [7] it was 0.000187 µM and < 0.0025 µM. Also, the GI50 in experiment [10] was 0.000369 µM and 0.0025 µM. For the same compound, the TGI was above 25 µM in experiment [1]; above 25 µM in experiment [2]; above 25 µM in [3]; 0.000897 µM in experiment [4]; above 25 µM in [5]; above 25 µM in experiment [6]. Further, the TGI is 0.000627 µM and < 0.0025 µM in experiment [7]; above 25 µM in experiment [8]; above 25 µM in [9]; above 25 µM in [10].

For the compound `O=C1/C(=C/C(Cl)=C/c2ccccc2)SC(=S)N1CCc1ccc(O)cc1`, the GI50 in [1] was 1.97 µM; in [2] it was 1.51 µM; in [3] it was 2.11 µM; in [4] it was 1.42 µM; in experiment [5], 1.83 µM; in experiment [6] it was 1.67 µM. Moreover, the GI50 in [7] was 1.5 µM; in experiment [8] it was 2.17 µM; in experiment [9] it was 0.86 µM; in [10], 2.02 µM. Further, the TGI in experiment [1] stood at 4.14 µM; in [2], 4.12 µM; in experiment [3] it was 5.57 µM; in experiment [4], 4.78 µM; in [5], 3.93 µM; in [6], 3.6 µM. The TGI in experiment [7] was above 100 µM; in [8], above 100 µM; in [9], above 100 µM; in experiment [10], 3.91 µM.

In the case of `CSC(=S)NNC(=O)c1ccncc1`, the TGI in experiment [1] came to 57.6 µM; in experiment [2] it was 41.4 µM; in experiment [3], 37.8 µM; in [4], 31.4 µM; in [5], 44 µM; in [6], 36.2 µM. In addition, the TGI came to 39.9 µM in experiment [7], 38.5 µM in [8], 47.3 µM in [9] and 48.7 µM in experiment [10].

For `Cc1ccc2sc3c(NCCCNCCO)nc4ccccc4c3c(=O)c2c1`, the GI50 in experiment [1] was 1.61 µM; in experiment [2], 1.6 µM; in experiment [3] it was 1.67 µM; in experiment [4], 1.66 µM; in experiment [5], 1.8 µM; in [6], 1.6 µM. For the same compound, the GI50 was 1.86 µM in experiment [7], 1.36 µM in experiment [8], 1.55 µM in [9] and 1.62 µM in experiment [10]. Further, the TGI turned out to be 3.08 µM in [1]; 3.16 µM in experiment [2]; 3.36 µM in experiment [3]; 3.43 µM in [4]; 3.36 µM in [5]; 2.98 µM in experiment [6]. The TGI came out at 3.58 µM in experiment [7], 3.72 µM in [8], 4.07 µM in experiment [9] and 3.16 µM in [10].

With `COC(=O)Nc1nc2ccc(Oc3ccc(NC(=O)Nc4cccc(Cl)c4)cc3)cc2[nH]1`, the GI50 in [1] was 3.71 µM; in [2], 2.06 µM; in [3] it was 0.682 µM; in [4], 0.543 µM; in [5] it was 1.84 µM; in experiment [6], 2.23 µM. For the same compound, the GI50 in experiment [7] was 0.859 µM; in experiment [8] it was 0.175 µM; in [9], 0.144 µM; in experiment [10], 4.04 µM. In addition, the TGI in experiment [1] was above 25 µM; in experiment [2], 11.7 µM; in experiment [3], 3.48 µM; in experiment [4], 4.07 µM; in experiment [5], 7.41 µM; in experiment [6] it was above 18.6 µM. Further, the TGI in experiment [7] is 2.92 µM; in experiment [8] it was above 25 µM; in experiment [9] it was above 14.3 µM; in experiment [10], above 25 µM.

As for `CC/C(=C(\CC)c1ccc(OCCN(CC)CC)cc1)c1ccc(OCCN(CC)CC)cc1`, the GI50 was 4.02 µM in experiment [1]; 5.32 µM in experiment [2]; 0.0759 µM in experiment [3]; 1.83 µM in experiment [4]; 1.67 µM in experiment [5]; 3.99 µM in [6]. Moreover, the GI50 in [7] is 3.8 µM; in [8], 1.79 µM; in experiment [9] it was 1.38 µM; in experiment [10], 3.96 µM. The TGI in [1] is 20.4 µM; in [2] it was 21.3 µM; in experiment [3], 3.78 µM; in experiment [4], 4.67 µM; in experiment [5] it was 3.37 µM; in experiment [6], 18.7 µM. In addition, the TGI in experiment [7] came out at 9.84 µM; in [8], 10.5 µM; in experiment [9], 6.55 µM; in [10], 17.7 µM.

In the case of `CCOC(=O)c1cc2ncccc2c2ccccc12`, the TGI in [1], in experiment [2], in experiment [3], in experiment [4], in experiment [5] and in [6] was above 100 µM throughout. For the same compound, the TGI in [7], in experiment [8], in experiment [9] and in experiment [10] was above 100 µM throughout.

On to `CCCC(=O)NNc1[nH]c(-c2ccc(OC)cc2)cc1C(=O)OCC`, for which the GI50 was 16.9 µM in experiment [1]; 17.1 µM in experiment [2]; 17.4 µM in [3]; 24 µM in [4]; 12.7 µM in experiment [5]; 10.9 µM in [6]. Moreover, the GI50 in experiment [7] is 3.1 µM; in experiment [8] it was 9.61 µM; in experiment [9] it was 28.3 µM; in [10] it was 23.7 µM. The TGI in [1] worked out at 32.7 µM; in experiment [2] it was 30.9 µM; in experiment [3], 34.3 µM; in experiment [4] it was 50 µM; in [5], 25.6 µM; in experiment [6] it was 22.9 µM. For the same compound, the TGI in [7] is 93.2 µM; in [8], above 100 µM; in [9], above 100 µM; in experiment [10], 44.4 µM.

The record behind these values is PubChem BioAssay (NCI).
